Measurements: ChEMBL document CHEMBL3352480, “Antiproliferative glabretal-type triterpenoids from the root bark of Dictamnus dasycarpus” (Bioorg Med Chem Lett, 2015)

How the values were obtained:
[1] = Immunosupressive activity in OVA323-339 peptide-stimulated OT-2 T cell receptor transgenic mouse splenocytes assessed as inhibition of T cell proliferation after 3 days by MTT assay; assay type: functional, cell-based; details: Splenocyte, 72 h
[2] = Effect on IL-2 secretion in OVA323-339 peptide-stimulated OT-2 T cell receptor transgenic mouse T cells after 3 days by sandwich ELISA; assay type: cell-based; details: splenocyte, 72 h
[3] = Cytotoxicity against OT-2 T cell receptor transgenic mouse splenocytes using propidium iodide by flow cytometry; assay type: cell-based; details: splenocyte
[4] = Effect on IFN-gamma secretion in OVA323-339 peptide-stimulated OT-2 T cell receptor transgenic mouse T cells after 3 days by sandwich ELISA; assay type: cell-based; details: splenocyte, 72 h

Question: Which results are given for `CC(C)CC(=O)O[C@@H]1CC[C@]2(C)[C@H]3CC[C@]45C[C@]4(CC[C@H]5[C@@H]4C[C@H]([C@@H]5O[C@]5(C)CO)OC4O)[C@]3(C)[C@H](O)C[C@H]2C1(C)C` (stereo partly specified)?
Answer: IC50 [1]: 1500 nM; Activity [2]: Non-toxic; Activity [3]: Non-toxic; Activity [4]: Non-toxic

Question: For `CC(C)CC(=O)O[C@@H]1CC[C@]2(C)[C@H]3CC[C@]45C[C@]4(CC[C@H]5[C@@H]4C[C@H]([C@H](O)C(C)(C)O)OC4O)[C@]3(C)[C@H](O)C[C@H]2C1(C)C` (stereo partly specified), which IC50 [1] is on record?
Answer: The IC50 was > 20000 nM.

Question: What about the Activity [2] of the same molecule?
Answer: Its Activity is “Non-toxic”.

Question: What about the Activity [3] of the same molecule?
Answer: The Activity was “Non-toxic”.

Question: What about the Activity [4] of the same molecule?
Answer: The Activity was “Non-toxic”.

Question: What does the source list for `CCCCCCCCCC(=O)O[C@@H]1CC[C@]2(C)[C@H]3CC[C@]45C[C@]4(CC[C@H]5[C@@H]4C[C@H]([C@@H]5O[C@]5(C)CO)OC4O)[C@]3(C)[C@H](O)C[C@H]2C1(C)C` (stereo partly specified)?
Answer: IC50 [1]: 1800 nM; Activity [2]: Non-toxic; Activity [3]: Non-toxic; Activity [4]: Non-toxic

Question: What does the source list for `CCC(C)CCCCCCC(=O)O[C@@H]1CC[C@]2(C)[C@H]3CC[C@]45C[C@]4(CC[C@H]5[C@@H]4C[C@H]([C@@H]5O[C@]5(C)CO)OC4O)[C@]3(C)[C@H](O)C[C@H]2C1(C)C` (stereo partly specified)?
Answer: IC50 [1]: 1500 nM; Activity [2]: Non-toxic; Activity [3]: Non-toxic; Activity [4]: Non-toxic
